Measured values taken from patent US6310093A (priority 1998, dated 2001).
Where “and” joins values, the source holds several entries; their conditions need not be identical. Equal entries are not always repeated. Entries after “also recorded” stand apart in the source; their conditions may differ. Where two headings read alike, the source gives them in different places. Non-standard residues stand in square brackets, D forms with d. Residues, ends and D or L forms follow the SMILES beside them. pGlu = O=C1CC[C@@H](C(=O)O)N1

Assays:
[1] = target: T1, glutaminase (brain membranes) (Rattus norvegicus, UniProt P13264); assay: biochemical; parameters: Glutaminase Activity: unit not given here; conditions: for Glutaminase Activity: brain membranes
T1 construct: Membranes are prepared by homogenization of brain tissue in 330 mM sucrose; from tissue; host or cells: rat brain, crude membranes (17000 G pellet)
T1 sequence (P13264 73-674 limits assumed): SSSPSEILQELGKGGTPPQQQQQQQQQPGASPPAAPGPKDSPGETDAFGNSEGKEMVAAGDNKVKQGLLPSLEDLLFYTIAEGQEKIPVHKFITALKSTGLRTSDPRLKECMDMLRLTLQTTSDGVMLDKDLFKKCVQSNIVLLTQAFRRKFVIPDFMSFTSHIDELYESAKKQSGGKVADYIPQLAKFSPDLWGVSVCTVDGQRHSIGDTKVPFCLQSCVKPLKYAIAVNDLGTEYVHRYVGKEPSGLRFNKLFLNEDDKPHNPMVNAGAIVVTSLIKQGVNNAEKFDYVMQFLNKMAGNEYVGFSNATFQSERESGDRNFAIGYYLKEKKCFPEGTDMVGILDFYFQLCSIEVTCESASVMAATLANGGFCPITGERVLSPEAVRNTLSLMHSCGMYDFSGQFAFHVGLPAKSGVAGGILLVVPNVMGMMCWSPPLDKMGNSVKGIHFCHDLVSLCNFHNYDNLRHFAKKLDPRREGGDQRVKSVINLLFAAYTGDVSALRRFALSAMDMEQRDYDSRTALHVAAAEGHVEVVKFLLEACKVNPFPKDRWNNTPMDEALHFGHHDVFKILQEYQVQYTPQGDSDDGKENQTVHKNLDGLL

[2] = test system: pure neuronal cultures (cortical neurons) exposed to glutamine
[3] = read-out: glutaminase activity, phosphate-containing compounds

Row | Structure (SMILES) | activity at 3300 µM ([1]; read-out: Glutaminase Activity) | activity at 9000 µM ([1]; read-out: Glutaminase Activity) | other results
1 | CC(CC(N)C(=O)O)C(=O)O (racemic) [(±)-threo-4-methylglutamate] | 170% | 100% | 
2 | CC(=O)NC(CCC(=O)O)C(=O)O (racemic) [N-acetyl-DL-glutamate] | 92 ± 10% | 75 ± 10% | 
3 | CNC(CCC(=O)O)C(=O)O (racemic) [N-methyl-DL-glutamate] | 102% | 124% | 
4 | CC(N)(CCC(=O)O)C(=O)O (racemic) [α-methyl-DL-glutamate] | 76% |  | 
5 | C=C(CC(N)C(=O)O)C(=O)O (racemic) [γ-methylene-DL-glutamate] | 105 ± 10% |  | 
6 | C[C@@H](CC(=O)O)[C@H](N)C(=O)O (relative stereo) [(±)-erythro-3-methylglutamate] | 34% | 18% | glutaminase inhibition (in words) [1]: moderate inhibition
7 | C[C@H](CC(=O)O)[C@H](N)C(=O)O (relative stereo) [(±)-threo-3-methylglutamate] | 91% | 7% | 
8 | CCCCCCCC([N+](=O)[O-])[N+](=O)[O-] [1,1-dinitrooctane] |  |  | dependence of glutaminase inhibition on phosphate level and concentration (in words) [1]: inhibition was reduced in the presence of high phosphate levels; the effect was particularly evident; also recorded: A biphasic effect; Glutaminase Activity ([1]; 30 µM): 96 ± 3; Glutaminase Activity ([1]; 100 µM): 96 ± 4; Glutaminase Activity ([1]; 300 µM): 51 ± 4 and 88 ± 17; Glutaminase Activity ([1]; 3000 µM): 64 ± 43; activity at 30 µM ([1]; read-out: Glutaminase Activity): 89 ± 6%; activity at 100 µM ([1]; read-out: Glutaminase Activity): 77 ± 11%; activity at 3000 µM ([1]; read-out: Glutaminase Activity): 79 ± 27%; neuroprotection (in words) [2]: neuroprotective in cultures of pure (intact) neurons; lowering of LDH level ([2]; pure neuronal cultures): 30-40%; lowering of glutamate level ([2]; pure neuronal cultures): 30-40%
9 | NC(CC(N)C(=O)O)C(=O)O (centres unmarked) [2,4-diaminopentanedioic acid] | 82 ± 7% | 103 ± 25% | 
10 | CCOP(=O)(OCC)c1ccc(P(=O)(OCC)OCC)s1 [2,5-bis(diethoxyphosphoryl) thiophene] |  |  | activity at 3000 µM [1, 3]: 75 to 90%; activity at 9000 µM [1, 3]: 70 to 85%
11 | O=C(O)C(CC=C1c2ccccc2C=Cc2ccccc21)C(=O)O [2-(2-dibenzo(a,d)cyclohepten-5-ylidene)-ethyl malonic acid] |  |  | dependence of glutaminase inhibition on phosphate level and concentration (in words) [1]: inhibition was reduced in the presence of high phosphate levels; the effect was particularly evident; Glutaminase Activity ([1]; 300 µM): 83 ± 7; Glutaminase Activity ([1]; 1000 µM): 61 ± 4; activity at 100 µM ([1]; read-out: Glutaminase Activity): 86 ± 10%; activity at 300 µM ([1]; read-out: Glutaminase Activity): 75 ± 5%; activity at 1000 µM ([1]; read-out: Glutaminase Activity): 44 ± 2%
12 | C=CCCCCCCCCCC(C(=O)O)C(=O)O [2-undec-10-enyl malonate] |  |  | Glutaminase Activity ([1]; 100 µM): 89 ± 6; Glutaminase Activity ([1]; 300 µM): 87 ± 2; activity at 100 µM ([1]; read-out: Glutaminase Activity): 96 ± 7%; activity at 300 µM ([1]; read-out: Glutaminase Activity): 67 ± 2%
13 | N[C@@H](CC(F)C(=O)O)C(=O)O (some centres unmarked) [4-fluoroglutamic acid] | 4.2 ± 1.3% |  | IC50 [1]: 500 µM; activity at 330 µM ([1]; read-out: Glutaminase Activity): 67 ± 7%; activity at 1000 µM ([1]; read-out: Glutaminase Activity): 30 ± 9%
14 | CC[C@](N)(CCC(=O)O)C(=O)O [(2S)-α-ethyl glutamic acid] | 95% |  | 
15 | C[C@H](N)C(=O)N[C@@H](CCC(=O)O)C(=O)O [Ala--Glu] (H-Ala-Glu-OH) | 117% | 115% | 
16 | N=C(N)NCCC[C@H](N)C(=O)N[C@@H](CCC(=O)O)C(=O)O [Arg--Glu] (H-Arg-Glu-OH) | 123% | 118% | 
17 | N[C@@H](CC(=O)O)C(=O)N[C@@H](CCC(=O)O)C(=O)O [Asp--Glu] (H-Asp-Glu-OH) | 77% | 32% | glutaminase inhibition (in words) [1]: moderate inhibition
18 | CC(C)(C)OC(=O)N[C@@H](CCC(=O)O)C(=O)O [BOC--Glu--OH] | 101% | 100% | 
19 | CC(C)(C)OC(=O)NCC(=O)NC(CC(F)C(=O)O)C(=O)O (centres unmarked) [BOC-glycyl-4-fluoroglutamate] | 52% | 15% | 
20 | N[C@@H](CCC(=O)O)C(=O)N[C@@H](CCC(=O)O)C(=O)O [Glu--Glu] (H-Glu-Glu-OH) | 130% | 141% | 
21 | N[C@@H](CCC(=O)O)C(=O)NCC(=O)O [Glu--Gly] (H-Glu-Gly-OH) | 94% | 95% | 
22 | NCCCC[C@H](NC(=O)[C@@H](N)CCC(=O)O)C(=O)O [Glu--Lys] (H-Glu-Lys-OH) | 96% | 93% | 
23 | C[C@@H](O)[C@H](NC(=O)[C@@H](N)CCC(=O)O)C(=O)O [Glu--Thr] (H-Glu-Thr-OH) | 124% | 123% | 

Row | Structure (SMILES) | activity at 3300 µM ([1]; read-out: Glutaminase Activity) | activity at 9000 µM ([1]; read-out: Glutaminase Activity) | other results
24 | CC(C)[C@H](NC(=O)[C@@H](N)CCC(=O)O)C(=O)O [Glu--Val] (H-Glu-Val-OH) | 122% | 116% | 
25 | NCC(=O)N[C@@H](CCC(=O)O)C(=O)O [Gly--Glu] (H-Gly-Glu-OH) | 94% | 102% | 
26 | NCC(=O)NCC(=O)N[C@@H](CCC(=O)O)C(=O)O [Gly--Gly--Glu] (H-Gly-Gly-Glu-OH) | 101% | 87% | 
27 | NCC(=O)N[C@H](CCC(=O)O)C(=O)O [Gly-D-Glu] (H-Gly-[dE]-OH) | 109% | 90% | 
28 | CCOC(=O)CC[C@H](N)C(=O)O [L-glutamate-5-ethyl ester] | 98% | 92% | 
29 | COC(=O)CC[C@H](N)C(=O)O [L-glutamate-5-methyl ester] | 105 ± 7% | 113% | 
30 | NC(=O)[C@@H](N)CCC(=O)O [L-glutamide] | 99% | 96% | 
31 | CSCC[C@H](N)C(=O)N[C@@H](CCC(=O)O)C(=O)O [Met--Glu] (H-Met-Glu-OH) | 111% | 98% | 
32 | CC(=O)N[C@@H](CC(=O)O)C(=O)N[C@@H](CCC(=O)O)C(=O)O [N-acetyl Asp--Glu] (Ac-Asp-Glu-OH) | 83% |  | glutaminase inhibition (in words) [1]: moderate inhibition
33 | N=CN[C@@H](CCC(=O)O)C(=O)O [N-formamino-Glu] | 89% | 127% | 
34 | N[C@@H](CO)C(=O)N[C@@H](CCC(=O)O)C(=O)O [Ser--Glu] (H-Ser-Glu-OH) | 104% | 88% | 
35 | N[C@@H](Cc1c[nH]c2ccccc12)C(=O)N[C@@H](CCC(=O)O)C(=O)O [Trp--Glu] (H-Trp-Glu-OH) | 99% | 86% | 
36 | N[C@@H](Cc1ccc(O)cc1)C(=O)N[C@@H](CCC(=O)O)C(=O)O [Tyr--Glu] (H-Tyr-Glu-OH) | 110% | 118% | 
37 | CC(C)[C@H](N)C(=O)N[C@@H](CCC(=O)O)C(=O)O [Val--Glu] (H-Val-Glu-OH) | 114% | 99% | 
38 | O=C(O)CC[C@H](NC(=O)OCc1ccccc1)C(=O)O [carbobenzoxy-Glu--OH] | 65% | 56% | glutaminase inhibition (in words) [1]: moderate inhibition
39 | O=C(O)CCCC(=O)O [glutaric acid] | 89% | 75% | 
40 | NCC(=O)NC(CC(F)C(=O)O)C(=O)O (centres unmarked) [glycyl-4-fluoroglutamate, Glycyl-4-fluoroglutamate] | 55% | 30% | activity at 330 µM ([1]; read-out: Glutaminase Activity): 94%; activity at 900 µM ([1]; read-out: Glutaminase Activity): 80%
41 | Cc1ncc(COP(=O)(O)O)c(C=O)c1O [pyridoxal 5-phosphate] |  |  | activity at 3000 µM [1, 3]: 75 to 90%; activity at 9000 µM [1, 3]: 70 to 85%
42 | C[C@H](NC(=O)[C@@H]1CCC(=O)N1)C(=O)N[C@@H](CCC(=O)O)C(=O)O [pyro-Glu--Ala--Glu] ([pGlu]-Ala-Glu-OH) | 95% | 76% | 
43 | CC(C)OP(=O)(CCP(=O)(OC(C)C)OC(C)C)OC(C)C [tetraisopropyl ethylene diphosphonate] |  |  | activity at 3000 µM [1, 3]: 75 to 90%; activity at 9000 µM [1, 3]: 70 to 85%
44 | NC(CC(=O)O)CC(=O)O [β-glutamic acid] | 84% |  | Glutaminase Activity ([1]; 9000 µM): 73 and 83 and 94
45 | N[C@@H](CCC(=O)NCC(=O)O)C(=O)O [γ-Glu--Gly] | 90 ± 13% |  | 
46 | NC(CC(C(=O)O)C(=O)O)C(=O)O (centres unmarked) [γ-carboxy glutamate] | 100% | 104% | 
